Data reported in publication PMC7046148 (Scientific Reports, 2020).

Tested on: Gibco hiPSCs
Experiment: qRT-PCR characterization of LPM differentiation, Gibco hiPSCs in 2D
Assay type: cell-based, human
Settings: 20 µM thalidomide, 2 d in APEL2+GSKi; for effect on marker gene expression during LPM differentiation (words): 2D
Description: The TaqMan hPSC Scorecard Assay (Thermo Fisher) was used to assess the pluripotency of cultured Gibco hiPSCs and the XCL-1 hiPSC clones as described. The assay outputs scores for self-renewal, ectoderm, endoderm, and mesoderm genes.
Gibco hiPSCs were seeded in small clumps at ~10% confluence on Matrigel-coated dishes and were cultured for 1 d in mTeSR-1. On the following day after seeding, the medium was switched to APEL2 basal medium (Stem Cell Technologies) supplemented with 5 µM CHIR99021 (Stem Cell Technologies) (hereafter referred to as APEL2 + GSKi). hiPSCs were cultured for the described duration in APEL2 + GSKi and were characterized by qRT-PCR and immunofluorescence. Briefly, RNA was extracted using buffer RLT supplemented with 1% β-mercaptoethanol and purified from hiPSCs using RNeasy kit (Qiagen) with optional DNase step. Reverse transcription was carried out using the high capacity cDNA reverse transcription kit (ThermoFisher). cDNA was characterized using Qubit HS dsDNA kit (Invitrogen), and qRT-PCR was carried out using TaqMan primer/probes (Thermo Fisher) and fast advanced master mix (Thermo Fisher) per manufacturer’s instructions on either the Viia7 or QuantStudio 5 (Thermo Fisher). Assay results were normalized to ACTB housekeeping control and the undifferentiated control (day 0) via the 2^−ΔΔCT method. The capacity of Gibco hiPSCs and XCL-1 hiPSCs to undergo LPM differentiation was also assessed using qRT-PCR for markers of pluripotency (NANOG, POU5F1), primitive streak (T, SOX17), LPM (FOXF1, GATA4), and limb mesenchyme (PITX1, TBX5).
Data represent the mean ± log2 fold change, normalized to the ACTB control and the DMSO control via the 2^−ΔΔCT method, relative to DMSO control from 4 independent experiments. Asterisks denote statistical significance via 2-tailed Student’s t-test relative to a nominal mean log2 fold change of ‘0’ (α = 0.05). PS = primitive streak; LPM = lateral plate mesoderm.
Legend for Supplementary Tables 1-3
Supplementary tables 1-3 contain qRT-PCR data obtained using the Taqman hPSC Scorecard Assay (Thermo Fisher).Lysates of Gibco and XCL-1 hiPSCs were purified to RNA using RNeasy procedure (Qiagen). Reverse transcription was performed using the cDNA high capacity reverse transcription kit(Invitrogen). dsDNA content was calculated using Qubit dsDNA HS kit(Invitrogen). cDNA was loaded into hPSC pluripotency panel pre-loaded 384 well plates, and plates were run on Viia7 using standard curve method. The hPSC scorecard analysis software (Thermo Fisher) was used to calculate the relative gene expression scores forself-renewal genes, ectoderm genes, endoderm genes, and mesoderm genes. Scores are provided from pooled lysates from replicate wells ofa single experiment. Cells were cultured as described herein. […]

Q: For O=C1CCC(N2C(=O)c3ccccc3C2=O)C(=O)N1 (stereo not shown) [Thalidomide, thalidomide], which “effect on marker gene expression during LPM differentiation (words)” value is on record?
A: Its value is “did not affect expression of the other measured markers”.

Q: What about the “effect on marker gene expression during LPM differentiation (words)” value (listed as thalidomide) of the same compound?
A: Its value is “significantly reduced the expression of both FOXF1 and SOX17”.

Q: What about the “reduction of FOXF1 expression” value (hPSC Scorecard panel) of the same compound?
A: The value was ~ 60%.

Q: And the “reduction of SOX17 expression” value (hPSC Scorecard panel)?
A: Its value is > 95%.
